Data reported in PubChem BioAssay (NCI).
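1) Cells in 96-well plates. 2) Compound, 48 h, 5 concentrations. 3) Linear interpolation between surrounding doses. 4) Unreached endpoint = highest concentration. GI50 marks 50% less growth. Definition used: TGI = concentration required for complete inhibition of growth.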

Key:
Test in all cases: NCI anticancer screen, dose series, 48 h
KM20L2 colon = test system: KM20L2 colon
ACHN renal = test system: ACHN renal
786-0 renal = test system: 786-0 renal
NCI-H226 lung = test system: NCI-H226 lung
BT-549 breast = test system: BT-549 breast
MDA-MB-231 breast = test system: MDA-MB-231 breast
A498 renal = test system: A498 renal
OVCAR-8 ovarian = test system: OVCAR-8 ovarian
NCI-H23 lung = test system: NCI-H23 lung
HCT-15 colon = test system: HCT-15 colon
MDA-N = test system: MDA-N
NCI-H522 lung = test system: NCI-H522 lung
PC-3 prostate = test system: PC-3 prostate
M19-MEL melanoma = test system: M19-MEL melanoma
IGROV1 ovarian = test system: IGROV1 ovarian
CAKI-1 renal = test system: CAKI-1 renal
HS 578T breast = test system: HS 578T breast
DU-145 prostate = test system: DU-145 prostate
HOP-18 NSCLC = test system: HOP-18 NSCLC
HL-60(TB) leukemia = test system: HL-60(TB) leukemia
KM12 colon = test system: KM12 colon
DMS 273 small cell lung = test system: DMS 273 small cell lung
RPMI-8226 leukemia = test system: RPMI-8226 leukemia
OVCAR-3 ovarian = test system: OVCAR-3 ovarian
OVCAR-4 ovarian = test system: OVCAR-4 ovarian
DLD-1 colon = test system: DLD-1 colon
EKVX NSCLC = test system: EKVX NSCLC
UACC-257 melanoma = test system: UACC-257 melanoma
SNB-19 CNS = test system: SNB-19 CNS

With `CN(Cc1cnc2nc(N)nc(N)c2n1)c1ccc(C(=O)NC(CCC(=O)O)C(=O)O)c2ccccc12` (centres undefined) the GI50 (KM20L2 colon) was 0.00489 µM, the TGI (ACHN renal) was > 1000 µM and the TGI (786-0 renal) was > 1000 µM. For the same compound, the GI50 (NCI-H226 lung) was > 1000 µM, the TGI (NCI-H226 lung) was > 1000 µM and the GI50 (BT-549 breast) was > 1000 µM. The TGI (BT-549 breast) was > 1000 µM, the GI50 (MDA-MB-231 breast) was > 1000 µM and the TGI (MDA-MB-231 breast) was > 1000 µM. The GI50 (A498 renal) was 0.0152 µM, the TGI (A498 renal) was > 1000 µM and the TGI (OVCAR-8 ovarian) was > 1000 µM. For the same compound, the TGI (NCI-H23 lung) was > 1000 µM, the TGI (HCT-15 colon) was > 1000 µM and the TGI (MDA-N) was > 1000 µM. For the same compound, the GI50 (NCI-H522 lung) was 0.0826 µM, the TGI (NCI-H522 lung) was 7.12 µM and the GI50 (PC-3 prostate) was 89.8 µM. The TGI (PC-3 prostate) was > 1000 µM, the GI50 (M19-MEL melanoma) was 0.0725 µM and the TGI (IGROV1 ovarian) was > 1000 µM. For the same compound, the TGI (CAKI-1 renal) was > 1000 µM, the GI50 (HS 578T breast) was > 1000 µM and the TGI (HS 578T breast) was > 1000 µM. For the same compound, the TGI (DU-145 prostate) was > 1000 µM, the GI50 (HOP-18 NSCLC) was 0.0452 µM and the TGI (HL-60(TB) leukemia) was > 1000 µM. For the same compound, the TGI (KM12 colon) was > 1000 µM, the GI50 (DMS 273 small cell lung) was 0.000946 µM and the TGI (RPMI-8226 leukemia) was > 1000 µM. The GI50 (OVCAR-3 ovarian) was 32.9 µM, the GI50 (OVCAR-4 ovarian) was > 1000 µM and the TGI (OVCAR-4 ovarian) was > 1000 µM. For the same compound, the GI50 (DLD-1 colon) was 0.00257 µM, the GI50 (EKVX NSCLC) was > 1000 µM and the TGI (EKVX NSCLC) was > 1000 µM. The GI50 (UACC-257 melanoma) was < 0.0363 µM, the GI50 (SNB-19 CNS) was < 0.0174 µM and the TGI (SNB-19 CNS) was > 1000 µM.
